Patent US20040097420A1, “Proteasome regulation of NF-kB activity” (Harvard College, priority 1994, published 2004)
pKi: −log10 of the molar value. Non-standard residues stand in square brackets, D forms with d. Residues, ends and D or L forms follow the SMILES beside them. ξ: configuration not given here. *: point of attachment. Phe(4-NO2) = N[C@@H](Cc1ccc([N+](=O)[O-])cc1)C(=O)O; 1Nal = N[C@@H](Cc1cccc2ccccc12)C(=O)O; 2Nal = N[C@@H](Cc1ccc2ccccc2c1)C(=O)O; hPhe = N[C@@H](CCc1ccccc1)C(=O)O; Cha = N[C@@H](CC1CCCCC1)C(=O)O; Ile(3ξ) = CCC(C)[C@H](N)C(=O)O; Nle = CCCC[C@H](N)C(=O)O; Nva = CCC[C@H](N)C(=O)O; Abu = CC[C@H](N)C(=O)O; Cbz = O=C(OCc1ccccc1)*; Boc = CC(C)(C)OC(=O)*; Bn = c1ccc(C*)cc1

Columns and labels:
26S proteasome = biological target: T1, 26S proteasome (Oryctolagus cuniculus, UniProt G1T4Q9); assay: Inhibition of the 26S proteasome (kinetic experiments, Ki); type: biochemical; details: Rabbit muscle; substrate Suc-LLVY-AMC; [Mg:ATP] = 2 mM
T1 sequence (G1T4Q9 1-263): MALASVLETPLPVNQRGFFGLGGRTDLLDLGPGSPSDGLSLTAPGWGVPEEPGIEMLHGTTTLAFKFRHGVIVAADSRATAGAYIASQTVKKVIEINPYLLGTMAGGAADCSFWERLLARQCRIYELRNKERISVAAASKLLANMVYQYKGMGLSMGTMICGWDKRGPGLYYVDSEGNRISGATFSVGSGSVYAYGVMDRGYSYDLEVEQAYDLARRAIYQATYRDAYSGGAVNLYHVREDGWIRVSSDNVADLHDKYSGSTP
Text: (§1) Tables I-III summarize results from kinetic experiments that measured the inhibition of the 20S and 26S proteasomes, as well as cathepsin B and calpain. In these tables, Ki values are reported, which are dissociation constants for the equilibrium that is established when enzyme and inhibitor interact to form the enzyme:inhibitor complex.
(§2) The substances and assay conditions are briefly summarized in the footnotes to Table I. MG 101 and MG 102, also known as Calpain Inhibitor I and II, were purchased from Calbiochem as catalogue products.

20S Proteasome [1] = biological target: T2, 20S Proteasome (Oryctolagus cuniculus, UniProt G1T4Q9); assay: Inhibition of the 20S proteasome (kinetic experiments, Ki); type: biochemical, Rabbit; parameters: Ki 20 S; substrate Suc-LLVY-AMC; details: Rabbit muscle, SDS-activated; substrate Suc-LLVY-AMC
T2 sequence (G1T4Q9 1-263): T1 sequence (G1T4Q9 1-263)
Text: as §1, §2
(§3) Table V summarizes data for the inhibition of the 20S proteasome by various tripeptide aldehyde inhibitors.

cathepsin B = biological target: T3, cathepsin B (Bos taurus, UniProt P07688); assay: Inhibition of cathepsin B (Ki); type: biochemical; details: Bovine spleen; substrate Z-RR-AMC; [DTT] = 2 mM, [EDTA] = 5 mM, pH 5.5, 37° C.; read-out: Ki Cat B
T3 construct: Bovine spleen; Substrate: Z-RR-AMC; from tissue; host or cells: bovine spleen
Text: as §1

[2] = biological target: calpain, 80 kD catalytic subunit; assay: Inhibition of calpain (Ki); type: biochemical; details: Rabbit muscle, substrate Suc-LLVY-AMC, [CaCl2] = 1 mM, [DTT] = 2 mM, pH 7.8, 20° C.
Text: as §1

20S proteasome [3] = biological target: T4, 20S proteasome (Oryctolagus cuniculus, UniProt G1T4Q9); assay: Inhibition of the 20S proteasome (kinetic experiments, Ki); type: biochemical, Rabbit; details: Table V, miscellaneous tripeptide aldehydes; 20S proteasome
T4 sequence (G1T4Q9 60-263): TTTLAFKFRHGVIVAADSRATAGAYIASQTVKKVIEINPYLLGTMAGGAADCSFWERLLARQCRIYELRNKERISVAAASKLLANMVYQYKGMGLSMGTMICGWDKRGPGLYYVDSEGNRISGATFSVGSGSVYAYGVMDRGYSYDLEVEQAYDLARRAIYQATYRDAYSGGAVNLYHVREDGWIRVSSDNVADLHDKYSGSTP
Text: as §1, §2, §3

[4] = biological target: T5, chymotrypsin-like activity of the proteasome (UniProt Q32KL2); details: slow binding inhibitors; Vinitsky et al., Biochemistry 31:9421-9428 (1992); cited from earlier work
T5 sequence (Q32KL2 1-263): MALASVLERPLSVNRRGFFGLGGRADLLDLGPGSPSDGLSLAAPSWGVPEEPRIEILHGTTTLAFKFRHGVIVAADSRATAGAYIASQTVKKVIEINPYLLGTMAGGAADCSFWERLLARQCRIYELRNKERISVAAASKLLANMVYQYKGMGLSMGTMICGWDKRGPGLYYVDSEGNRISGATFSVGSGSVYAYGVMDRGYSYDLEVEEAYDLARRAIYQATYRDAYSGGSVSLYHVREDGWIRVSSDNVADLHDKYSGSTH

SMILES	pKi (26S proteasome)	pKi (20S Proteasome [1])	pKi (cathepsin B)	pKi [2]	pKi (20S proteasome [3])	also measured
CC(C)C[C@H](NC(=O)OCc1ccccc1)C(=O)N[C@@H](CC(C)C)C(=O)N[C@H](C=O)C(C)C [MG 120] (Cbz-Leu-Leu-Val-aldehyde)	6.25	7.03	7.44	7.85		
CCCC[C@@H](C=O)NC(=O)[C@H](CC(C)C)NC(=O)OCc1ccccc1 [MG 105, Z-Leu-Nle-H, reference compound]		4.82				
CC(C)C[C@H](NC(=O)OCc1ccccc1)C(=O)N[C@@H](CC(C)C)C(=O)NCC=O [MG 118] (Cbz-Leu-Leu-Gly-aldehyde)	4.55	5.42	7.03	6.92		
CCC(C)[C@@H](C=O)NC(=O)[C@H](CC(C)C)NC(=O)[C@H](CC(C)C)NC(=O)OCc1ccccc1 (stereo partly drawn) [MG 134] (Cbz-Leu-Leu-[Ile(3ξ)]-aldehyde)					7.00	
CCOC(=O)C(=O)[C@H](Cc1ccccc1)NC(=O)[C@H](CC(C)C)NC(=O)[C@H](CC(C)C)NC(=O)OCc1ccccc1 [Z-Leu-Leu-Phe-COOEt]						pKi [4]: 4.28
CCCC[C@@H](C=O)NC(=O)[C@H](CC(C)C)NC(=O)[C@H](CC(C)C)NC(=O)OCc1ccccc1 [MG 114, Z-Leu-Leu-Nle-H] (Cbz-Leu-Leu-[Nle]-aldehyde)	6.92	7.33	8.15	7.92		
CC(=O)N[C@@H](CC(C)C)C(=O)N[C@@H](CC(C)C)C(=O)N[C@H](C=O)CC(C)C [MG 154] (Ac-Leu-Leu-Leu-aldehyde)					7.12	
CC(C)C[C@@H](C=O)NC(=O)[C@H](CC(C)C)NC(=O)[C@H](CC(C)C)NC(=O)OC(C)(C)C [MG 155] (Boc-Leu-Leu-Leu-aldehyde)					7.27	
CSCC[C@@H](C=O)NC(=O)[C@H](CC(C)C)NC(=O)[C@H](CC(C)C)NC(C)=O [MG 102, reference compound] (Ac-Leu-Leu-Met-aldehyde)	4.55	6.00	7.03	6.92		
CC(C)C[C@H](NC(=O)OCc1ccccc1)C(=O)N[C@@H](CC(C)C)C(=O)N[C@H](C=O)CC1CCCCC1 [MG 129] (Cbz-Leu-Leu-[Cha]-aldehyde)					7.22	

The next lines start with results.

pKi (26S proteasome)	pKi (20S Proteasome [1])	pKi (cathepsin B)	pKi [2]	pKi (20S proteasome [3])	SMILES	also measured
7.11	7.68	8.00	8.00		CCC[C@@H](C=O)NC(=O)[C@H](CC(C)C)NC(=O)[C@H](CC(C)C)NC(=O)OCc1ccccc1 [MG 115, Z-Leu-Leu-Nva-H] (Cbz-Leu-Leu-[Nva]-aldehyde)	
				9.62	CC(C)C[C@@H](C=O)NC(=O)[C@H](CC(C)C)NC(=O)[C@H](Cc1ccc2ccccc2c1)NC(=O)OCc1ccccc1 [MG 165] (Cbz-[2Nal]-Leu-Leu-aldehyde)	
6.55	7.30	7.74	7.82		CC[C@@H](C=O)NC(=O)[C@H](CC(C)C)NC(=O)[C@H](CC(C)C)NC(=O)OCc1ccccc1 [MG 119] (Cbz-Leu-Leu-[Abu]-aldehyde)	
				8.22	CC(C)C[C@H](NC(=O)OCc1ccccc1)C(=O)N[C@@H](CC(C)C)C(=O)N[C@H](C=O)Cc1ccc(O)cc1 [MG 131] (Cbz-Leu-Leu-Tyr-aldehyde)	
				6.55	CC(C)C[C@H](NC(=O)OCc1ccccc1)C(=O)N[C@@H](CC(C)C)C(=O)N[C@H](C=O)Cc1ccc(OCc2ccccc2)cc1 [MG 153] (Cbz-Leu-Leu-Tyr(Bn)-aldehyde)	
				6.54	CC(C)C[C@H](NC(=O)OCc1ccccc1)C(=O)N[C@@H](CC(C)C)C(=O)N[C@H](C=O)Cc1ccc([N+](=O)[O-])cc1 [MG 135] (Cbz-Leu-Leu-[Phe(4-NO2)]-aldehyde)	
				9.31	CC(C)C[C@@H](C=O)NC(=O)[C@H](C)NC(=O)[C@H](Cc1cccc2ccccc12)NC(=O)OCc1ccccc1 [MG 168] (Cbz-[1Nal]-Ala-Leu-aldehyde)	
				7.23	CC(C)C[C@H](NC(=O)OCc1ccccc1)C(=O)N[C@@H](CC(C)C)C(=O)N[C@H](C=O)CCc1ccccc1 [MG 124] (Cbz-Leu-Leu-[hPhe]-aldehyde)	
